Results reported in publication PMC9804781, “Identification of a Novel Pseudo‐Natural Product Type IV IDO1 Inhibitor Chemotype” (Angewandte Chemie (International Ed. in English), 2022).
Values joined by “and” are separate entries in the source; they are usually repeats but may differ in a detail not shown here. Identical values can stand only once. Like-named read-outs stand apart in the source and are kept apart here.

How the values were obtained:
Kyn levels in HeLa cells = test: Manual Kyn assay in HeLa cells (p-DMAB detection); assay type: cell-based; settings: for IC50: IFN-γ, L-Trp, p-DMAB
Protocol: Mammalian cell lines were maintained at 37°C and 5% CO2 in a humidified atmosphere and sub-cultivated twice a week. All cell lines were tested regularly for mycoplasma contamination and were always free of mycoplasma. BxPC-3 cells (DSMZ#760) were grown in RPMI-1640 medium supplemented with 10% FBS, 2 mM L-glutamine, 1 mM sodium pyruvate, 4.5 g/L glucose, 10 mM HEPES and 1.5 g/L NaHCO3. HeLa cells (DSMZ#57) were cultivated in DMEM supplemented with 10% FBS, 4.5 g/L glucose, 4 mM L-glutamine 1 mM sodium pyruvate, 1% non-essential amino acids, 3.7 g/L NaHCO3. SKOV-3 cells (ATCC#HTB-77) were maintained in modified McCoy’s 5A medium supplemented with 10% FBS, 1.5 mM L-glutamine and 2.2 g/L NaHCO3. […]
For manual testing, BxPC-3, HeLa or SKOV-3 cells (20,000 cells/well, 5,000 cells/well or 6,250 cells/well, respectively) were seeded in 96-well plates (BxPC-3 and HeLa) or 384-well plates (SKOV-3) in medium without phenol red. After 24 h, the IDO1 pathway was induced by addition of 50 ng/mL (BxPC-3 and HeLa) or 17.6 ng/mL IFN-γ (SKOV-3) and 380 µM (BxPC-3), 164.15 µM (HeLa) or 450 µM L-Trp (SKOV-3) with simultaneous treatment with the compounds at the indicated concentrations followed by incubation for 48 h. For the hemin competition assay, hemin was added together with IFN-γ, L-Trp and the compounds. Subsequently, trichloroacetic acid was added to a final concentration of 7% (v/v), the plates were incubated for 15 min at room […]
temperature and centrifuged for 10 min at 1800 x g. Afterwards, an equal volume of freshly prepared 2% (w/v) p-DMAB in glacial acetic acid (Ehrlich reagent) was added prior to measuring the absorbance at 492 nm and 650 nm on the Spark® Multimode Microplate Reader (Tecan, AT).
To determine the Kyn levels, the absorbance of the Kyn-p-DMAB adduct A492 was subtracted by the background absorbance A650 and normalized to the DMSO control. Data analysis was performed using a non-linear regression curve fit and GraphPad Prism 9.0 (GraphPad Software, Inc, US) to generate dose-response curves and obtain IC50 values. […]
Subsequently, 10 mM ascorbic acid, 10 μM methylene blue, 2 mM L-Trp and 100 μg/mL catalase were added and samples were incubated for 60 min at room temperature or 37°C. […]

[1] = Ligand integrity in the crystallization drop (HPLC-ESI-MS); assay type: physicochemical; settings: 63 days after the crystallization setup
Protocol: for 10 min. Protein crystals were obtained from a sitting drop setup (iQ plates, SPT Labtech, UK) by addition of 100 nL of the reservoir solution (40% (v/v) PEG200 in 100 mM MES, pH 6.5) to 100 nL of protein solution and incubation at 20°C. Crystals were harvested after 7 days by addition of reservoir solution as cryoprotectant to the drop prior to plunging of the crystals in liquid nitrogen. […]
The integrity of apoxidole-1 in the protein solution was assessed 63 days after the crystallization setup by mixing the crystallization drop with 100 µL of DCM and recording of HPLC-ESI-MS spectra using the LTQ Fleet (Thermo Fisher Scientific, US), Ultimate 3000 HPLC (Thermo Fisher Scientific, US) and Xcalibur™ software (Thermo Fish er Scientific, US). […]
(v/v) component 2 in component 1) and 50 µM Test Inhibitor (0.5% (v/v) DMSO) for 90 min at 30°C with slow shaking in the dark prior to initiation of the reaction by addition of 20% (v/v) IDO2 Substrate. Samples were incubated for 120 min at 30°C with slow shaking in the dark. […]

rhIDO1 (holo-IDO1) = biological target: T1, rhIDO1 (holo-IDO1) (Homo sapiens, UniProt P14902); test: nanoDSF thermal denaturation of IDO1; assay type: binding
T1 construct: His; made in house; host or cells: E. coli
T1 sequence (P14902 whole entry): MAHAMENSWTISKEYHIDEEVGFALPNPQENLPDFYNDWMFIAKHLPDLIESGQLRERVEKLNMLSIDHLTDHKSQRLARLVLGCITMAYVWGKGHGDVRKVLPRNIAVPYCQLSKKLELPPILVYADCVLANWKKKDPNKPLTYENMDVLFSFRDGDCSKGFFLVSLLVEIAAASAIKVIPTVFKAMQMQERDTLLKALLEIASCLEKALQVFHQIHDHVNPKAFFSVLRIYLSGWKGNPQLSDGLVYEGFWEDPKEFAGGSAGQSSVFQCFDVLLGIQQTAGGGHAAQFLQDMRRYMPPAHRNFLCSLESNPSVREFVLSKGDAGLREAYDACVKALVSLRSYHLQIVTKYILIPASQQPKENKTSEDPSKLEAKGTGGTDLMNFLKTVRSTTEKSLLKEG
Protocol: 11 µM rhIDO1 was incubated with compounds at indicated concentrations for 60 min at 37°C in 50 mM potassium phosphate buffer (16.9 mM K2HPO4, 33.1 mM, KH2PO4, pH 6.5). The thermal protein stability from 20°C to 90°C (1°C/min) was measured by means of the intrinsic tryptophan/tyrosine fluorescence using the Prometheus™ NT.48 (NanoTemper® Technologies, DE). Melting scans, first derivatives of melting scans and melting temperatures were analyzed using PR.ThermControl software (NanoTemper® Technologies, DE). Binding affinities were determined by plotting the melting temperature against the ligand concentration and fitting with a single site ligand binding function using GraphPad Prism 9.0 (GraphPad Software, Inc, US). The isothermal analysis of the nanoDSF data was performed with FoldAffinity[1] with an assumed heat capacity change ΔCp of zero. […]

IC50 (Kyn levels in HeLa cells; Homo sapiens, HeLa, 48 h, 48 h, mean±SD, n=3, read-out: Kyn assay IC50 HeLa): 46.7 ± 2.4 nM
IC50 (Kyn levels in HeLa cells; 48 h, mean±SD, n=3, listed as apoxidole-1, read-out: Kyn assay IC50 HeLa): 46.7 ± 2.44 nM
IC50 (Kyn levels in HeLa cells; compounds 48 h, mean n=3 ±SD, listed as 3d^a, read-out: Kyn Assay IC50): 280 ± 40 nM
IC50 (Kyn levels in HeLa cells; compounds 48 h, mean n=3 ±SD, listed as 3d^ab, read-out: Kyn Assay IC50): 3410 ± 260 nM
IC50 (Kyn levels in HeLa cells; compounds 48 h, mean n=3 ±SD, listed as 3d^b, read-out: Kyn Assay IC50): 47 ± 2 nM
IC50 (Kyn levels in HeLa cells; compounds 48 h, mean n=3 ±SD, read-out: Kyn Assay IC50): 70 ± 10 nM
ligand integrity after crystallization setup [1]: still intact
Kd (rhIDO1 (holo-IDO1); 48 °C, FoldAffinity, first replicate, read-out: KD, 48°C (isothermal analysis, single replicate)): 11.6 nM
Kd (rhIDO1 (holo-IDO1); 49 °C, FoldAffinity, read-out: KD, 49°C (isothermal analysis, single replicates)): 24.7 nM and 26 nM
Kd (rhIDO1 (holo-IDO1); 50 °C, FoldAffinity, read-out: KD, 50°C (isothermal analysis, single replicates)): 48.4 nM and 34.7 nM and 24.8 nM
Kd (rhIDO1 (holo-IDO1); 51 °C, FoldAffinity, read-out: KD, 51°C (isothermal analysis, single replicates)): 54.4 nM and 41.3 nM and 33.6 nM
Kd (rhIDO1 (holo-IDO1); at 49 °C, read-out: KD (isothermal analysis of nanoDSF data)): 20.7 ± 0.01 nM
Kd (rhIDO1 (holo-IDO1); from Tm vs concentration, mean±SD, n=3, read-out: apparent dissociation constant KD,app): 1100 nM and 1090 nM
shift of melting temperature Tm (nanoDSF) (rhIDO1 (holo-IDO1); holo-IDO1, 60 min at 37 °C): 7.7±0.3 °C
melting temperature Tm of IDO1 with compound (rhIDO1 (holo-IDO1); holo-IDO1 treated with compound, DMSO 45.7±0.2 °C): 53.5±0.2 °C
SMILES: CCOC(=O)C1=CC[C@](C(=O)OC)(c2cc3ccccc3n2C)N(S(=O)(=O)c2ccc(C)cc2)[C@@H]1C(=O)OC(C)(C)C [Compound 3d]
fold less active than enantiopure apoxidole-1 (Kyn assay) (Kyn levels in HeLa cells): 72 fold
